According to ChEMBL document CHEMBL4052778, “Bioactive polyprenylated benzophenone derivatives from the fruits extracts of Garcinia xanthochymus” (Bioorg Med Chem Lett, 2017):
The source made the active and inactive calls. No cut-off for these calls is given here.

Columns and labels:
[1] = test system: MDA-MB-231; experiment: Cytotoxicity against human MDA-MB-231 cells assessed as reduction in cell viability after 72 hrs by CyQuant dye-based assay; type: functional
[2] = test system: NIH3T3; experiment: Cytotoxicity against mouse NIH/3T3 cells assessed as reduction in cell viability after 72 hrs by CyQuant dye-based assay
[3] = test system: U-251; experiment: Cytotoxicity against human U251MG cells assessed as reduction in cell viability after 72 hrs by CyQuant dye-based assay; type: functional
[4] = target: Signal transducer and activator of transcription 3 (Homo sapiens) (UniProt P40763); experiment: Inhibition of STAT3 activity in human U251MG cells assessed as downregulation of STAT3 phosphorylation at Tyr705 residue at 5 uM up to 24 hrs by Western blot analysis; type: cell-based
[5] = test system: U-251; experiment: Antimigratory activity in human U251MG cells at 2.5 to 5.0 uM after 18 hrs by inverted fluorescence microscopic method-based wound-healing assay; type: functional, cell-based
[6] = target: Signal transducer and activator of transcription 3 (Homo sapiens) (UniProt P40763); experiment: Inhibition of STAT3 DNA binding activity in human U251MG nuclear extract at 5 uM preincubated for 30 mins followed by addition of [32P]hSIE measured up to 24 hrs by electrophoretic mobility shift assay
[7] = Homo sapiens, U-251, 72 h, read-out: IC50

Chain of Signal transducer and activator of transcription 3 (Homo sapiens) (P40763 whole entry): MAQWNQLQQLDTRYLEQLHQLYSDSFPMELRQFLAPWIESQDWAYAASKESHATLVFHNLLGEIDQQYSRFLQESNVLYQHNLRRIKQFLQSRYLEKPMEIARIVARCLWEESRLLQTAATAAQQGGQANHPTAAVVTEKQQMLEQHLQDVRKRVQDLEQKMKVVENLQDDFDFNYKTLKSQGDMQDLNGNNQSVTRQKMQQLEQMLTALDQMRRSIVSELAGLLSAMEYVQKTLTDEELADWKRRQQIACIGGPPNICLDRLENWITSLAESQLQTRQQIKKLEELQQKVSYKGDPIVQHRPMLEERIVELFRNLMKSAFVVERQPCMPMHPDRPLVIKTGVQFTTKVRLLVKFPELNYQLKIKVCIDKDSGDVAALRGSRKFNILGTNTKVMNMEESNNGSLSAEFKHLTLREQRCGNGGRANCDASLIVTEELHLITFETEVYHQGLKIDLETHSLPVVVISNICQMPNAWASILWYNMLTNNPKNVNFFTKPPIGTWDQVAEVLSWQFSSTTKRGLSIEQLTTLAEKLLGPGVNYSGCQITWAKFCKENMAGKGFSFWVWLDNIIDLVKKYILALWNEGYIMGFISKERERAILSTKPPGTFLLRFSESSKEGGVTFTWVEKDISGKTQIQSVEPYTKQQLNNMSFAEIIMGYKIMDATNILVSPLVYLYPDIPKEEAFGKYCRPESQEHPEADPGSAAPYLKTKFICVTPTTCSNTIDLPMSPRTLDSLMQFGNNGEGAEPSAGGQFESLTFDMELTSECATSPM

| inhibition [4] | inhibition [6] | Compound | IC50 [1] | IC50 [2] | IC50 [3, 7] [µM] | IC50 ([3]; u-251) | Activity [5] |
| --- | --- | --- | --- | --- | --- | --- | --- |
| – | – | C=C(C)C(CC=C(C)C)C[C@@]12C[C@@H](CC=C(C)C)C(C)(C)[C@@](CC=C(C)C)(C(=O)C(C(=O)c3cccc(O)c3)=C1O)C2=O (some centres undefined) | Not Active | Non-Toxic | 1.3 | – | – |
| Active | – | C=C(C)CC[C@H](C[C@]12C[C@H](CC=C(C)C)C(C)(C)[C@](CC=C(C)C)(C(=O)C(C(=O)c3ccc(O)c(O)c3)=C1O)C2=O)C(=C)C | – | – | – | – | – |
| – | – | CC(C)=CC[C@H]1C[C@@]23C[C@@H](CC=C(C)C)C(C)(C)[C@@](CC=C(C)C)(C(=O)C(C(=O)c4ccc(O)c(O)c4)=C2OC1(C)C)C3=O [CAMBOGIN] | Not Active | Non-Toxic | 2.8 | – | – |
| – | – | CC(C)=CC[C@H]1C[C@]23C[C@@H]4CC=C(C)C[C@]4(C)C[C@@]2(O)c2c(oc4cc(O)c(O)cc4c2=O)[C@@](CC=C(C)C)(C3=O)C1(C)C | Not Active | Non-Toxic | 1.8 | – | – |
| – | – | C=C(C)CC[C@H]1C[C@]23C[C@H](CC=C(C)C)C(C)(C)[C@](CC=C(C)C)(C2=O)c2oc4cc(O)c(O)cc4c(=O)c2[C@]3(O)CC1=C | Not Active | Non-Toxic | 3.5 | – | – |
| – | – | CC(C)=CC[C@@H]1C[C@]23C[C@H](CC=C(C)C)C(C)(C)[C@](CC=C(C)C)(C(=O)C(C(=O)c4ccc(O)c(O)c4)=C2OC1(C)C)C3=O [ISOXANTHOCHYMOL] | Not Active | Non-Toxic | 6 | – | – |
| – | – | C=C(C)CCC(CC12CC3C(C=C(C)C)C(C(=O)c4ccc(O)c(O)c4)(CC(CC=C(C)C)(C1=O)C3(C)C)C2=O)C(=C)C (centres undefined) | Not Active | Non-Toxic | – | Not Active | – |
| – | Active | C=C(C)[C@H]1C[C@@]23C[C@@H](CC=C(C)C)C(C)(C)[C@@](CC=C(C)C)(C(=O)C(C(=O)c4ccc(O)c(O)c4)=C2O[C@@H]1C=C(C)C)C3=O | Not Active | Non-Toxic | 3.7 | – | Active |
